In patent publication US6503307B1, “Ink set, printing method, ink, printed article, printing apparatus, ink cartridge, recording unit, and process of forming polymeric compound films” (Canon Kabushiki Kaisha, priority 1999, dated 2003):

Key:
Solubility in water = format: physicochemical; details: highest concentration forming a uniform transparent aqueous solution
From the text: In Table 1, the water solubility is shown by the highest concentration of the compound for forming a uniform transparent aqueous solution.

[1] = Reactivity: time for gel formation on mixing 50% solutions; format: physicochemical; details: 50% solution of Group B compound with aqueous 50% solution of Compound A-1

Compound	Solubility (Solubility in water)	Time for gel formation [1]
SCC(S)CS [Compound B-8]	>30%	600 s
NC1C(O)OC(CO)C(O)C1O (stereo not drawn) [Compound B-4]	20%	600 s
CCC(CS)(CS)CS [Compound B-10]	>30%	600 s
